Values after ≈ are worked out from the molar mass of the structure shown.
Columns and labels:
[1] = system: KB; test: Cytotoxicity against human KB cells after 72 hrs; format: functional; settings: read-out: ED50 (the source's name)
[2] = system: Spodoptera frugiperda; test: Insecticidal activity against Spodoptera frugiperda; format: functional

Structure (SMILES)	EC50 [1] [µg/mL]	LC50 [2] [ng/cm2]
COc1ccc(C2COc3c(ccc(O)c3OC)C2)c(O)c1OC (stereo not given) [ISODUARTIN]	2.63 (≈ 7.91 µM)	>1000
COc1cc([C@H]2COc3c(ccc(O)c3OC)C2)c(OC)c(OC)c1OC	3.8 (≈ 10.1 µM)	>1000
COc1cc([C@H]2COc3c(ccc(O)c3OC)C2)c(OC)c(O)c1OC	3 (≈ 8.28 µM)	>1000
COc1cc(OC)c(-c2coc3cc(O)ccc3c2=O)cc1OC	> 4	
COc1cc2c(cc1-c1coc3cc(O)ccc3c1=O)OCO2 [CUNEATIN]	> 4	
CC[C@H](/C=C/[C@@H](C)[C@H]1CC[C@H]2[C@@H]3CC=C4C[C@@H](O)CC[C@]4(C)[C@H]3CC[C@]12C)C(C)C [STIGMASTEROL]	> 4	
COc1ccc2c(c1OC)OC[C@H]1c3cc4c(cc3O[C@@H]21)OCO4	> 4	

Reference: ChEMBL document CHEMBL1150904, “Cytotoxic isoflavans from Eysenhardtia polystachya” (1998)
